From patent publication US11279702B2, “AMPK activators” (Kallyope, Inc., priority 2020, dated 2022)
Each block holds one compound with its values, some of them ahead of it.

Assays:
[1] = system: Mouse In Vivo Chemotherapy-Induced Intestinal Injury Model; experiment: Diarrhea in chemotherapy (5FU)-induced intestinal injury model; design: species or system BALB/c mice
Method: Compounds were formulated in vehicle (0.25% methyl cellulose, 5% Tween 80, 0.02% sodium dodecyl sulfate (SDS) in Hanks' Buffered Salt Solution with Ca2+ and Mg2+). On day 1, either saline or a 400 mg/kg dose of 5-fluorouracil (5FU) in saline was administered by intraperitoneal injection to BALB/c mice. Starting on day 2, vehicle or compound was administered once or twice a day by oral gavage. In some instances, compound was also administered once or twice a day by oral gavage from day −3 to day −1 (pre-5FU). From days 5 to 6 post-5FU, the animals were scored for diarrhea severity once a day. The diarrhea was scored 0-3 as follows: 0—normal consistency (black and solid), 1—soft (black and a bit lighter/yellow), 2—loosely shaped stool (yellowish and somewhat watery), 3—extreme diarrhea (very watery). Day 5 and day 6 diarrhea scores following administration of certain compounds were lower than vehicle control mice. […] In addition, Compound 1 was efficacious at doses as low as 3 mg/kg BID (6 mg/kg total daily dose).

[2] = molecular target: T1, Recombinant AMPK α1/β1/γ1 complex (Homo sapiens (Human), UniProt Q13131+Q9Y478); experiment: In vitro pAMPK1 kinase activation assay (ADP-Glo, SAMS peptide); format: biochemical; conditions: at 10 μM
[3] = system: Madin-Darby Canine Kidney (MDCK) cells; experiment: In vitro MDCK epithelial permeability assay (FITC-dextran, calcium switch); format: cell-based; conditions: low calcium medium, MDCK monolayers
Description: In order to quantitatively measure the effects of transporter substrate AMPK activators on epithelial permeability in vitro, standard calcium switch protocols from the literature were adapted for use with Madin-Darby Canine Kidney (MDCK) cells grown on Corning Transwell inserts for use with fluorescein isothiocyanate-dextran, average molecular weight 4 kDa (FITC-dextran). FITC-dextran is a large, metabolically inert sugar molecule that is not readily transferrable across healthy epithelial barriers in vitro or in vivo. This compound has been tagged with a fluorophore to easily track its movement.
Briefly, MDCK cells were seeded onto Transwell inserts and grown according to manufacturer instructions until confluent. On the day of the experiment, a baseline reading was taken in standard growth media in which FITC-dextran was spiked into the apical chamber and the percent permeation of FITC-dextran from the apical to the basolateral chamber was measured. The inserts were then washed in low calcium medium (LCM) containing either vehicle or compound to remove residual FITC-dextran and calcium, and FITC-dextran was once again spiked into the apical chamber and the percent permeation in LCM was measured. Values were determined by reading fluorescence intensity on a standard plate reader and calculated by fitting back to 12-point standard curve in either growth media or LCM+vehicle, respectively. The fold induction of FITC-dextran permeation to the basolateral chamber when each well was transferred from baseline growth media to LCM was then calculated.

[4] = system: Mouse In Vivo Acute Dextran Sulfate Sodium (DSS) Colitis Model; experiment: Intestinal barrier function in acute DSS colitis model (FITC-dextran); design: species or system C57Bl/6 mice
Method: Vehicle or a dose of Compound A1 or Compound 1 was administered once daily by oral gavage to C57Bl/6 mice. After 3 days of pre-dosing, dextran sulfate sodium (DSS) was simultaneously administered at 2.5-3% in drinking water, and appropriate water-only controls were included.
After 6 days of DSS administration, animals treated with Compound A1 were switched back to their regular water source and a 24-hour wash-out of both DSS and compound was provided. The animals were fasted on the morning of take-down and administered a single oral bolus dose of FITC-dextran. The animals were sacrificed by cardiac puncture 4 hours after administration and plasma was collected. The concentration of FITC-dextran present in plasma was determined by measuring fluorescence intensity on a standard plate reader, and fitting values back to a standard curve.
After 7 days of DSS administration, animals treated with Compound 1 were switched back to their regular water source and the animals were administered a single oral bolus dose of FITC-dextran (FD) four hours prior to necropsy. The animals were sacrificed by cardiac puncture and serum was collected. The concentration of FITC-dextran present in serum was determined by measuring fluorescence intensity on a standard plate reader, and fitting values back to a standard curve.

[5] = molecular target: T1, Recombinant AMPK α1/β1/γ1 complex; experiment: In vitro pAMPK1 kinase activation assay (ADP-Glo, SAMS peptide); format: biochemical; conditions: for EC50: AMPK α1/β1/γ1 pre-activated with CAMKK2, 12-point curve; for activation at 10 µM: relative to reference compound MK-8722
Method: Compound effect on AMPK enzyme activation was determined in a cell-free format with a 12-point concentration curve. The ADP-Glo detection system was used to determine phosphorylation of a SAMS peptide substrate. Recombinant AMPK α1/β1/γ1 complex was pre-activated by phosphorylation with CAMKK2 followed by incubated with compound for 15 minutes prior to the SAMS phosphorylation reaction. Activity curves and EC50 values were fitted by interpolation to an ATP:ADP standard curve as indicated by the ADP-Glo manufacturer using Prism software. Activity at 10 μM is reported relative to a reference compound, MK-8722 (Science 2017, 357(6350):507-511).

[6] = Pharmacokinetics (oral bioavailability, IV parameters); conditions: mouse, in vivo, C57BL/6 mice; for bioavailability: IV 1 mg/kg, PO 30 mg/kg; for half-life / Vd: IV administration 1 mg/kg; for Vd: read-out: volume of distribution
Method: Compounds were tested for pharmacokinetics in C57BL/6 mice. Compounds 2, 4, and A1 were dosed IV at 1 mg/kg as a formulation of 0.5 mg/mL in 5% DMSO+30% PEG400+65% water and PO at 30 mg/kg as a formulation of 6 mg/mL in 0.25% MC+5% Tween 80+0.02% SDS. Compound 1 was dosed IV at 1 mg/kg as a formulation of 0.50 mg/mL in 5% DMSO+30% PEG400+65% water and PO at 30 mg/kg as a formulation of 6 mg/mL in 0.5% MC+0.5% Tween 80.

T1 sequence (Q13131 whole entry): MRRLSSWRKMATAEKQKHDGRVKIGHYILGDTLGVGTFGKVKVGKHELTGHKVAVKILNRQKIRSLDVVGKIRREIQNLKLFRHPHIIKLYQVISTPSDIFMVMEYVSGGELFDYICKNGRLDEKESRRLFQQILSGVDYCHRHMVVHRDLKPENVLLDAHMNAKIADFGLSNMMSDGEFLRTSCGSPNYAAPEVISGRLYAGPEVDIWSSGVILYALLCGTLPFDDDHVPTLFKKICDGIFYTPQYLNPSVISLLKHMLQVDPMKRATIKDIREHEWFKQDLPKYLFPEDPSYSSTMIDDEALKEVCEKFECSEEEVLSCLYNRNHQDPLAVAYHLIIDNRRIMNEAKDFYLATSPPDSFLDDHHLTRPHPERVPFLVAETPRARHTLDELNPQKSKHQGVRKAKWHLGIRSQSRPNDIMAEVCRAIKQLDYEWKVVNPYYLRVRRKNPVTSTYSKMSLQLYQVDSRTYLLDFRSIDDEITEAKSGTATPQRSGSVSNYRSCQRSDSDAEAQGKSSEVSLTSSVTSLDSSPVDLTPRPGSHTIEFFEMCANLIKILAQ
T1 sequence (Q9Y478 whole entry): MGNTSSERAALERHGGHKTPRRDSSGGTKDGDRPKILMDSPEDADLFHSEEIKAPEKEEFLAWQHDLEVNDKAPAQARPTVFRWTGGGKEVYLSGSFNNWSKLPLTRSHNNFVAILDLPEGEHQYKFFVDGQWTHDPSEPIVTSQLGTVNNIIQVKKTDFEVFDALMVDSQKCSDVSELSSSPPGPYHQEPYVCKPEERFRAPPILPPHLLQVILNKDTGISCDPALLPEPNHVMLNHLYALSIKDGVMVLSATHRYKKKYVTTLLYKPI
T1 sequence (P54619 whole entry partner): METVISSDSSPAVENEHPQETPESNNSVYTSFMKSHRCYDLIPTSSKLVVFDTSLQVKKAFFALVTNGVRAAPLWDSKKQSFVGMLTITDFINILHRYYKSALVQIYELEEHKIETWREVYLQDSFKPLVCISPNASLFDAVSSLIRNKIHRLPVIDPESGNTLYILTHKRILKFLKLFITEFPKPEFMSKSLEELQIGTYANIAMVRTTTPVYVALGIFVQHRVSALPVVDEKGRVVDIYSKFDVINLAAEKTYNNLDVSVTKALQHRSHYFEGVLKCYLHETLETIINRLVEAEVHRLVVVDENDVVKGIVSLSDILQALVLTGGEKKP

- potency relative to Compound A1 [5]: > 100 fold
- EC50 [5]: 1.4 nM
- activation at 10 µM [5]: 35%
- bioavailability [6]: < 1%
- half-life [6]: 1.9 h
- Vd [6]: 0.7 L/kg
Compound: O=C(O)CSc1nc2nc(-c3ccc(-c4ccccc4O)cc3)c(Cl)cc2[nH]1 [Compound 1, 2-((6-chloro-5-(2′-hydroxy-[1,1′-biphenyl]-4-yl)-1H-imidazo[4,5-b]pyridin-2-yl)thio)acetic Acid]
- Diarrhea Score % Change vs. Vehicle ([1]; 3 mg/kg BID, Day 5): −17%
- Diarrhea Score ([1]; 3 mg/kg BID, Day 5, score 0-3): 0.50
- Diarrhea Score % Change vs. Vehicle ([1]; 3 mg/kg BID, Day 6): −56%
- Diarrhea Score ([1]; 3 mg/kg BID, Day 6, score 0-3): 0.75
- Diarrhea Score % Change vs. Vehicle ([1]; 10 mg/kg BID, Day 5): −28%
- Diarrhea Score ([1]; 10 mg/kg BID, Day 5, score 0-3): 0.43
- Diarrhea Score % Change vs. Vehicle ([1]; 10 mg/kg BID, Day 6): −71%
- Diarrhea Score ([1]; 10 mg/kg BID, Day 6, score 0-3): 0.50
- Diarrhea Score % Change vs. Vehicle ([1]; 30 mg/kg BID, Day 5): −100%
- Diarrhea Score ([1]; 30 mg/kg BID, Day 5, score 0-3): 0
- Diarrhea Score % Change vs. Vehicle ([1]; 30 mg/kg BID, Day 6): −66%
- Diarrhea Score ([1]; 30 mg/kg BID, Day 6, score 0-3): 0.57
- Diarrhea Score % Change vs. Vehicle ([1]; 30 mg/kg QD, Day 5): −30%
- Diarrhea Score ([1]; 30 mg/kg QD, Day 5, score 0-3): 0.63
- Diarrhea Score % Change vs. Vehicle ([1]; 30 mg/kg QD, Day 6): −58%
- Diarrhea Score ([1]; 30 mg/kg QD, Day 6, score 0-3): 0.75
- Diarrhea Score % Change vs. Vehicle ([1]; 100 mg/kg BID, Day 5): −63%
- Diarrhea Score ([1]; 100 mg/kg BID, Day 5, score 0-3): 0.38
- Diarrhea Score % Change vs. Vehicle ([1]; 100 mg/kg BID, Day 6): −79%
- Diarrhea Score ([1]; 100 mg/kg BID, Day 6, score 0-3): 0.38
- activation compared with AMP [2]: activation greater than that displayed by AMP
- reduction of FITC-dextran permeation relative to vehicle ([3]; 0.1 μM): 48%
- reduction of FITC-dextran permeation relative to vehicle ([3]; 1 μM): 62%
- Change in Fluorescence Intensity vs. Vehicle ([4]; 3 mg/kg PO once daily, serum, 7 days DSS): −35%
- Change in Fluorescence Intensity vs. Vehicle ([4]; 10 mg/kg PO once daily, serum, 7 days DSS): −69%
- Change in Fluorescence Intensity vs. Vehicle ([4]; 30 mg/kg PO once daily, serum, 7 days DSS): −80%
- Change in Fluorescence Intensity vs. Vehicle ([4]; 100 mg/kg PO once daily, serum, 7 days DSS): −96%

- EC50 [5]: 200 nM
- activation at 10 µM [5]: 48%
- bioavailability [6]: < 1%
- half-life [6]: 4.8 h
- Vd [6]: 2.4 L/kg
Compound: O=C(O)CSc1nc2cc(-c3ccc(-c4ccccc4O)cc3)c(Cl)cc2[nH]1 [Compound A1]
- Diarrhea Score % Change vs. Vehicle ([1]; 30 mg/kg QD, Day 5): +38%
- Diarrhea Score ([1]; 30 mg/kg QD, Day 5, score 0-3): 1.38
- Diarrhea Score % Change vs. Vehicle ([1]; 30 mg/kg QD, Day 6): −29%
- Diarrhea Score ([1]; 30 mg/kg QD, Day 6, score 0-3): 1.25
- activation compared with AMP [2]: activation greater than that displayed by AMP
- reduction of FITC-dextran permeation relative to vehicle ([3]; 0.1 μM): 40%
- reduction of FITC-dextran permeation relative to vehicle ([3]; 1 μM): 61%
- Change in Fluorescence Intensity vs. Vehicle ([4]; 30 mg/kg PO once daily, plasma, 6 days DSS then 24-hour wash-out): −60%
